Common to all, as to format: biochemical
The target of one test is T1, TCPTP (Homo sapiens, UniProt P17706).
T1 construct: catalytic domain (amino acid residues 1-288) of the human T cell PTPase (TCPTP); made in house
T1 sequence (P17706 1-288): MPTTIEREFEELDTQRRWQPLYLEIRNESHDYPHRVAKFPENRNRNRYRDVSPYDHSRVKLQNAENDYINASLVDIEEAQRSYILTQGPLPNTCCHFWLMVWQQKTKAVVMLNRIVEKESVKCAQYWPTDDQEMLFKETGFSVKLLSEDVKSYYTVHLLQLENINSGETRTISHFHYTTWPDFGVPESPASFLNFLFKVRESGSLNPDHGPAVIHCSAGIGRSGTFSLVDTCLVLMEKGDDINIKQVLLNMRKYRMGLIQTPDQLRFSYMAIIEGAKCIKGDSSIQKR
The test is described as follows: PTPase activity assay with pNPP substrate. The following applies: pH 7.0, ionic strength 0.15 M, read-out: Inhibition Potency, Ki.

For another test, the target named is T2, SHP2 (Homo sapiens, UniProt Q06124).
T2 construct: the catalytic domains of SHP1 and SHP2 were expressed and purified as (His)6-fusion proteins; (His)6; made in house
T2 sequence (Q06124 247-517 limits assumed): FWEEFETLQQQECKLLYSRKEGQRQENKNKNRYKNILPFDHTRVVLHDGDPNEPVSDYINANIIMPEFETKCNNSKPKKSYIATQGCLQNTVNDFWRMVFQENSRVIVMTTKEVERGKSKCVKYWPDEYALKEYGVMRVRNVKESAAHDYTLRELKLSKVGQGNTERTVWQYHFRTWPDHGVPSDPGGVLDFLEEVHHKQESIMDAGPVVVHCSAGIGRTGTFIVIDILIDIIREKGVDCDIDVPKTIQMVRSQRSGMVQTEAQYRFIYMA
The test is described as follows: Phosphatase panel, pNPP assay. Conditions: 2 mM pNPP; read-out: Inhibition Potency, IC50.

A further test has as its target T3, SHP1 (Homo sapiens, UniProt P29350).
T3 construct: the catalytic domains of SHP1 and SHP2 were expressed and purified as (His)6-fusion proteins; (His)6; made in house
T3 sequence (P29350 244-515 limits assumed): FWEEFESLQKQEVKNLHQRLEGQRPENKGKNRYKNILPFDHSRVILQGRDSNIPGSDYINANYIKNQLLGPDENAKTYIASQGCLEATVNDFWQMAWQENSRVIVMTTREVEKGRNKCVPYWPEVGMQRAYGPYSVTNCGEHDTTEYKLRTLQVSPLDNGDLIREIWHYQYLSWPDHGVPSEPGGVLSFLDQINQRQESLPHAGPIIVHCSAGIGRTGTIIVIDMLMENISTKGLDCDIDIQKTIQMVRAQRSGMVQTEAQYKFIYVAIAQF
Briefly: Phosphatase panel, pNPP assay. Conditions: 2 mM pNPP; read-out: Inhibition Potency, IC50.

The next test addresses T4, LAR (Homo sapiens, UniProt P10586).
T4 construct: The intracellular fragment of PTPa, LAR and CD45 containing both of the PTPase domains was cleaved off the fusion protein; GST (cleaved yes); made in house
T4 sequence (P10586 1285-1907 limits assumed): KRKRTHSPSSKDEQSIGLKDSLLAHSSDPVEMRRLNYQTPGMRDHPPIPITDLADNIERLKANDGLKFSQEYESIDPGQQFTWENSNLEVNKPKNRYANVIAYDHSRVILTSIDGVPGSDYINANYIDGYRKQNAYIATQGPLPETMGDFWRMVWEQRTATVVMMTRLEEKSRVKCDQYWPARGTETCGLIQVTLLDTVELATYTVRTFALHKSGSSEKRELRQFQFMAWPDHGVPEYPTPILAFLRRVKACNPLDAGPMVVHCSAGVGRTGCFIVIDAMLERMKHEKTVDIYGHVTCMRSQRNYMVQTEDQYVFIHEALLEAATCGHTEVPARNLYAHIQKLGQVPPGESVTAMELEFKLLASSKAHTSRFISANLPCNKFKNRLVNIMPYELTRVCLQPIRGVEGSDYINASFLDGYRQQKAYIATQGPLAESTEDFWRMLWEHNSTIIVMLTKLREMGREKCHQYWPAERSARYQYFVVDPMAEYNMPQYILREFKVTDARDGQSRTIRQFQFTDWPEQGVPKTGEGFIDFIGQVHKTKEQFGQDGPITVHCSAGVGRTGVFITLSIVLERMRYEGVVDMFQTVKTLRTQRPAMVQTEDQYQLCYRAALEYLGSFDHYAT
Briefly: Phosphatase panel, pNPP assay. Conditions: 2 mM pNPP; read-out: Inhibition Potency, IC50.

The next test has as its target T5, CD45 (Homo sapiens, UniProt P08575).
T5 construct: The intracellular fragment of PTPa, LAR and CD45 containing both of the PTPase domains was cleaved off the fusion protein; GST (cleaved yes); made in house
T5 sequence (P08575 599-1306 limits assumed): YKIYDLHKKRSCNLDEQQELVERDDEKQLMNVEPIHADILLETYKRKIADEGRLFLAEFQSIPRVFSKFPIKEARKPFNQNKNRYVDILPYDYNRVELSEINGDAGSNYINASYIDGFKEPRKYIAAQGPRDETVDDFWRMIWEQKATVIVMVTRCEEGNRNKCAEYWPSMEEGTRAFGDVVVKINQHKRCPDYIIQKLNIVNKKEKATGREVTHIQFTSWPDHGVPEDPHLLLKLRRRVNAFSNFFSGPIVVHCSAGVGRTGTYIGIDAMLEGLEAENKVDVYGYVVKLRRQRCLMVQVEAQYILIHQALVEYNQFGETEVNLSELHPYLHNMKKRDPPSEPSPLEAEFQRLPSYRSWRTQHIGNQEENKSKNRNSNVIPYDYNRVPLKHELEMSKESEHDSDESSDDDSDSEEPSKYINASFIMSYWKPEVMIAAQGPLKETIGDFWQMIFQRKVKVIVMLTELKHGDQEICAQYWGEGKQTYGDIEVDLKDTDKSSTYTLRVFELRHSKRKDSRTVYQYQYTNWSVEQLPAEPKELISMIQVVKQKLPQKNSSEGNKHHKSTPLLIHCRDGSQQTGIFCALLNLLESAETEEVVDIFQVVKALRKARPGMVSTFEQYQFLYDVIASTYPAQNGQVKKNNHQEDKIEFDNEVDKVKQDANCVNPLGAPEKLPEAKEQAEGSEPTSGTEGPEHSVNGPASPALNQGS
The test is described as follows: Phosphatase panel, pNPP assay. Conditions: at 10 μM.

The next test addresses T6, PP2Cα (Homo sapiens, UniProt P35813).
T6 sequence (P35813 1-382): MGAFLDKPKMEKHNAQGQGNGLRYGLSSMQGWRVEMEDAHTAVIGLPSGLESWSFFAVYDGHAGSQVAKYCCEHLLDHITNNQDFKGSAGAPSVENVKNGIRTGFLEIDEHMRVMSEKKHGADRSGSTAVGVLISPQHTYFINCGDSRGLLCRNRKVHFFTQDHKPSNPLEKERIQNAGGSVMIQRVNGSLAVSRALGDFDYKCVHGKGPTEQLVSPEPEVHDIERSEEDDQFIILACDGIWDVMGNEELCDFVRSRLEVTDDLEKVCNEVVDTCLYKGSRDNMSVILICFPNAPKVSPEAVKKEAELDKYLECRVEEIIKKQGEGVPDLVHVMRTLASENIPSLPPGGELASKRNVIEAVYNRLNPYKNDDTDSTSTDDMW
Briefly: Phosphatase panel, pNPP assay. Conditions: at 10 μM.

In general, Ki refers to the equilibrium dissociation constant of an inhibitor or competing ligand from its target. The IC50 is the concentration needed to halve the response being measured. In the case of `NC(=O)C(Cc1ccc(C(F)(F)P(=O)(O)O)cc1)NC(=O)C(CC(=O)O)NC(=O)Cc1ccc(C(F)(F)P(=O)(O)O)cc1` (stereo not drawn) [Compound 40], the Ki at TCPTP came out at 0.026 µM. Also, the half-maximal inhibitory concentration (IC50) at SHP2 was 10 µM; at SHP1, 11 µM; on LAR, 72 µM. The “Inhibition Potency” value on CD45 and at PP2Cα was “No inhibition at 10 μM” throughout.

These data come from patent US20040191926A1 (priority 2001, published 2004).
